# Assay results published in patent US20100240580A1, “AZOLOARINE DERIVATIVES, METHOD FOR THE PRODUCTION THEREOF, PHARMACEUTICALS CONTAINING THESE COMPOUNDS AND THE USE THEREOF” (SANOFI-AVENTIS, priority 2007, published 2010).
# Molecular target: T1, SCD1 (Rattus norvegicus, UniProt P07308)
# T1 construct: The resuspended microsome fraction was stored at −80° C; from tissue; host or cells: liver microsomes of male Wistar rats fed a carbohydrate-rich, low-fat diet
# T1 sequence (P07308 1-358): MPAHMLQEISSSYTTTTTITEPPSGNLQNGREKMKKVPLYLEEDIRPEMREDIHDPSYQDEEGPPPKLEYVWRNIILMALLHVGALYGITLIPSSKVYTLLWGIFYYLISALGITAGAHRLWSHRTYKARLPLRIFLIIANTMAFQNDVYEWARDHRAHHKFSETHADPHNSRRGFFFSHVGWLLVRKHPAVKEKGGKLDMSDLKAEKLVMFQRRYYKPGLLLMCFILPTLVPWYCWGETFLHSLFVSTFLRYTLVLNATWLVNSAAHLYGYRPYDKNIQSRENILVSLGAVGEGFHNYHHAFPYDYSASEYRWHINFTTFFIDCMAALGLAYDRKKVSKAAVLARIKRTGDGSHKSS
# Experiment: stearoyl-CoA desaturase (SCD1) activity, thin-layer chromatography assay with rat liver microsomes
# Format: biochemical
# Conditions: compound at 10 μM, [1-14C]-stearic acid, 37° C., 1 h
# Protocol: The activity of the compounds of the invention of the formula I was investigated in the following assay system with microsomal enzymes:
# The livers of male Wistar rats which (to induce SCD1 expression) have been fed with a carbohydrate-rich, low-fat diet were homogenized with a Potter tissue homogenizer and differential centrifugation in a buffer which contained 250 mM sucrose and 5 mM HEPES (pH 7.0). The resuspended microsome fraction was stored at −80° C. The stearoyl-CoA desaturase activity was determined in a thin-layer chromatography assay with […] stearic acid. Stated briefly, the respective compounds of the invention (in DMSO in a final concentration of 1% [v/v]) were incubated with 15 μg of the rat liver microsomes in 200 μl of assay buffer (6 mM MgCl2, 250 mM sucrose, 150 mM KCl, 40 mM NaF, 100 mM Na2HPO4 (pH 7.4), 1.3 mM ATP, 1.5 mM reduced glutathione, 60 μM CoA, 0.33 mM nicotinamide and 0.94 mM NADH) at room temperature for 10 min. 0.5 μCi of [1-^14C]-stearic acid (55 mCi/mmol) was added, and the mixture was incubated at 37° C. for 1 h. The radiolabeled fatty acids were then hydrolyzed with 2.5 M KOH/MeOH:H2O (4:1) at 65° C. for 4 h, protonated with 280 μl of formic acid and extracted with 500 μl of hexane. The TLC plates were immersed in 10% AgNO3 and heat-activated before use. 150 μl of the hexane phase were put on the plates, and the TLC plates were developed in buffer (chloroform:methanol:acetic acid:water [90:8:1:0.8]) and dried. The plates were read in a PhosphoImager to quantify the SCD1 activity.
# The skilled person is able to modify this assay to determine the inhibition of stearoyl-CoA desaturase activity in various respects.
row,SMILES,% Inhibition (10 μM) [%]
1,"O=C(NCc1ccc(Cl)s1)c1ccc2nc(-c3ccc(Oc4ccccc4)cc3)[nH]c2c1 [Example 8, 2-(4-Phenoxyphenyl)-3H-benzimidazole-5-(5-chlorothiophen-2-ylmethyl)carboxamide]",37
2,"O=C(NCc1nccs1)c1ccc2nc(-c3ccc(Oc4ccccc4)cc3)[nH]c2c1 [Example 9, 2-(4-Phenoxyphenyl)-3H-benzimidazole-5-(thiazol-2-ylmethyl)carboxamide]",29
3,"CC(C)CCNC(=O)c1ccc2nc(-c3ccc(Oc4ccccc4Cl)cc3)[nH]c2c1 [Example 13, 2-[4-(2-Chlorophenoxy)phenyl]-3H-benzoimidazole-5-(3-methylbutyl)carboxamide]",58
4,"O=C(NCCC1CC1)c1ccc2nc(-c3ccc(Oc4ccccc4Cl)cc3)[nH]c2c1 [Example 14, 2-[4-(2-Chlorophenoxy)phenyl]-3H-benzoimidazole-5-(2-cyclopropylethyl)carboxamide]",80
5,"O=C(NCc1ccc(Cl)s1)c1ccc2nc(-c3ccc(Oc4ccccc4Cl)cc3)[nH]c2c1 [Example 15, 2-[4-(2-Chlorophenoxy)phenyl]-3H-benzoimidazole-5-(5-chlorothiophen-2-yl-methyl)carboxamide]",95
6,"O=C(NCc1nccs1)c1ccc2nc(-c3ccc(Oc4ccccc4Cl)cc3)[nH]c2c1 [Example 16, 2-[4-(2-Chlorophenoxy)phenyl]-3H-benzoimidazole-5-(thiazol-2-ylmethyl)carboxamide]",86
7,"O=C(NCc1cccs1)c1ccc2nc(-c3ccc(C(=O)c4ccccc4C(F)(F)F)cc3)[nH]c2c1 [Example 19, 2-[4-(2-Trifluoromethylbenzoyl)phenyl]-3H-benzimidazole-5-(thiophen-2-ylmethyl)-carboxamide]",100
8,"CC(C)CNC(=O)c1ccc2nc(-c3ccc(C(=O)c4ccccc4C(F)(F)F)cc3)[nH]c2c1 [Example 20, 2-[4-(2-Trifluoromethylbenzoyl)phenyl]-3H-benzoimidazole-5-isobutylcarboxamide]",77
9,"O=C(NCCC1CC1)c1ccc2nc(-c3ccc(Oc4ccccc4C(F)(F)F)cc3)[nH]c2c1 [Example 23, 2-[4-(2-Trifluoromethylphenoxy)phenyl]-3H-benzimidazole-5-(2-cyclopropylethyl)-carboxamide]",96
10,"CC(C)CCNC(=O)c1ccc2nc(-c3ccc(Oc4ccccc4C(F)(F)F)cc3)[nH]c2c1 [Example 24, 2-[4-(2-Trifluoromethylphenoxy)phenyl]-3H-benzimidazole-5-(3-methylbutyl)carboxamide]",77
11,"O=C(NCc1nccs1)c1ccc2nc(-c3ccc(Oc4ccccc4C(F)(F)F)cc3)[nH]c2c1 [Example 25, 2-[4-(2-Trifluoromethylphenoxy)phenyl]-3H-benzimidazole-5-(thiazol-2-ylmethyl)carboxamide]",100
12,"O=C(NCc1ccc(Cl)s1)c1ccc2nc(-c3ccc(C(=O)c4ccccc4C(F)(F)F)cc3)[nH]c2c1 [Example 27, 2-[4-(2-Trifluoromethylbenzoyl)phenyl]-3H-benzimidazole-5-(5-chlorothiophen-2-ylmethyl)-carboxamide]",100
13,"O=C(NCc1nccs1)c1ccc2[nH]c(-c3ccc(C(=O)c4ccccc4C(F)(F)F)cc3)nc2c1 [Example 28, 2-[4-(2-Trifluoromethylbenzoyl)phenyl]-1H-benzimidazole-5-(thiazol-2-ylmethyl)-carboxamide]",100
